Like-named read-outs stand apart in the source and are kept apart here.

This passage reports EC50 and Emax results from US8697691B2, “Alkyl 3-((2-amidoethyl)amino)-8-azabicyclo[3.2.1]octane-8-carboxylate analogs as selective M1 agonists and methods of making and using same” (Vanderbilt University, priority 2009, dated 2014).

What all share (format): cell-based
The target of one assay is T1, human M1 receptor (Homo sapiens, UniProt P11229).
T1 construct: host or cells: CHO-K1
T1 sequence (P11229 1-460): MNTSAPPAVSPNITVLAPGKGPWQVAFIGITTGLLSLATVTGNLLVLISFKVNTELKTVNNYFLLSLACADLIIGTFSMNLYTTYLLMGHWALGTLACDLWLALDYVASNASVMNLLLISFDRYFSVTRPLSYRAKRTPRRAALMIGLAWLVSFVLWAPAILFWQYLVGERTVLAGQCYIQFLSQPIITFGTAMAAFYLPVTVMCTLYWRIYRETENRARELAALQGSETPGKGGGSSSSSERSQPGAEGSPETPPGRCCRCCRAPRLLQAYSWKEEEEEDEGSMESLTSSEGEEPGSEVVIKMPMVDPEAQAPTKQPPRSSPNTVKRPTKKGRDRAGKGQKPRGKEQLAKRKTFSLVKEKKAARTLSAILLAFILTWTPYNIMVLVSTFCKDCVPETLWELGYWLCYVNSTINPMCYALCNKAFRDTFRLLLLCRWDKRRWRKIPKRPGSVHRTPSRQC
Description: Calcium mobilization assay, CHO-K1 cells stably expressing hM1 (high throughput, FDSS 6000). To be noted: for Emax: CHO-K1, read-out: Efficacy (% Max ACh). From the text:
Chinese hamster ovary (CHO-K1) cells stably expressing rat (r)M1 were purchased from the American Type Culture Collection and cultured according to their indicated protocol. CHO cells stably expressing human (h)M2, hM3, and hM5 were described previously (Levey et al., 1991); hM1 and hM4 cDNAs were purchased from Missouri S&T cDNA Resource; rM4 cDNA was provided by T. I. Bonner (National Institutes of Health, Bethesda, Md.). hM1, hM4, and rM4 cDNAs were used to stably transfect CHO-K1 cells purchased from the American Type Culture Collection using Lipofectamine2000. To make stable hM2, hM4 and rM4 cell lines for use in calcium mobilization assays, these cells also were stably transfected with a chimeric G-protein (Gqi5) (provided by B. R. Conklin, University of California, San Francisco) using Lipofectamine 2000. rM1, hM3, and hM5 cells were grown in Ham's F-12 medium containing 10% heat-inactivated fetal bovine serum (FBS), 20 mM HEPES, and 50 μg/mL G418 sulfate. hM2-Gqi5 and hM4-Gqi5 cells were grown in the same medium also containing 500 μg/mL Hygromycin B. Stable rM4-Gqi5 cells were grown in DMEM containing 10% heat-inactivated FBS, 20 mM HEPES, 400 μg/mL G418 sulfate, and 500 μg/mL Hygromycin B. The rat M1 Y381A orthosteric mutant receptor cDNA was generated using the Quik-Change site-directed mutagenesis kit (Stratagene) and verified by sequencing. CHO-K1 cells were stably transfected with this cDNA using Lipofectamine2000 and screened for expression based on calcium mobilization in response to the allosteric M1 agonist N-desmethylclozapine.
For high throughput measurement of agonist-evoked increases in intracellular calcium, CHO-K1 cells stably expressing muscarinic receptors were plated in growth medium lacking G418 and hygromycin at 15,000 cells/20 μL/well (hM1, hM2-Gqi5, hM3, hM4-Gq15, and hM5) in Greiner 384-well black-walled, tissue culture (TC)-treated, clear-bottom plates (VWR). Cells were incubated overnight at 37° C. and 5% CO2. The next day, cells were washed using an ELX 405 (BioTek) with three washes (50 μL) of assay buffer then aspirated to 15 μL. Next, 5 μL of 8 μM Fluo-4/acetoxymethyl ester (Invitrogen, Carlsbad, Calif.) prepared as a 2.3 mM stock in DMSO and mixed in a 1:1 ratio with 10% (w/v) Pluronic F-127 and diluted in assay buffer was added to the wells and the cell plates were incubated for 45 min at 37° C. and 5% CO2. Dye was removed by washing with the ELX 405 (three 50 μL washes of assay buffer) then aspirated to 20 μL. Agonist and compound master plates were formatted in an 11 point CRC format (1:3 dilutions) in 100% DMSO with a starting concentration of 10 mM using the BRAVO liquid handler (Agilent). Test compound CRCs were then transferred to daughter plates ([…]) using the Echo acoustic plate reformatter (Labcyte, Sunnyvale, Calif.) and then diluted into assay buffer (40 μL) to a 2× stock using a Thermo Fisher Combi (Thermo Fisher Scientific, Waltham, Mass.). Calcium flux was measured using the Functional Drug Screening System (FDSS) 6000 (Hamamatsu Corporation, Tokyo, Japan) as an increase in the fluorescent static ratio. 20 μL of Agonist Compounds were applied to cells using the automated system of the FDSS 6000 at 4 s into the 300 s protocol and the data were collected at 1 Hz. Concentration-response curves were generated using a four-parameter logistical equation in XLfit curve fitting software (IDBS, Bridgewater, N.J.) for Excel (Microsoft, Redmond, Wash.) or Prism (GraphPad Software, Inc., San Diego, Calif.).

The target in the next assay is hM2 receptor (Homo sapiens, UniProt P08172). Kind of assay: Calcium mobilization assay, CHO cells stably expressing hM2-Gqi5. The source says:
(§1) Chinese hamster ovary (CHO-K1) cells stably expressing rat (r)M1 were purchased from the American Type Culture Collection and cultured according to their indicated protocol. CHO cells stably expressing human (h)M2, hM3, and hM5 were described previously (Levey et al., 1991); hM1 and hM4 cDNAs were purchased from Missouri S&T cDNA Resource; rM4 cDNA was provided by T. I. Bonner (National Institutes of Health, Bethesda, Md.). hM1, hM4, and rM4 cDNAs were used to stably transfect CHO-K1 cells purchased from the American Type Culture Collection using Lipofectamine2000. […]
(§2) For low throughput measurement of agonist-evoked increases in intracellular calcium, CHO-K1 cells stably expressing muscarinic receptors were plated in 100 μL of growth medium at 5×10^4 (rM1, hM3, and hM5) or 6×10^4 cells per well (rM1 Y381A, hM2, and rM4) in Costar 96-well black-walled, tissue culture (TC)-treated, clear-bottom plates (Fisher). […] For calcium fluorescence measurements, CRCs of compounds (50 μl, 2×) were added 19 s after the beginning of data collection via a Flexstation II (Molecular Devices, Sunnyvale, Calif.). Fluorescence imaging continued for a total of 130 s acquisition time using an excitation wavelength of 488 nm, an emission wavelength of 525 nm, and a cutoff wavelength of 515 nm. […]
In general terms: A change in cytosolic calcium serves as a functional read-out for many receptors and channels.

The target in a further assay is T2, hM3 receptor (Homo sapiens, UniProt P20309).
T2 construct: expressed in transfected cells; host or cells: CHO cells (Levey et al., 1991)
Description: Calcium mobilization assay, CHO cells stably expressing hM3.
Text: as §1, §2

T2 sequence (P20309 whole entry): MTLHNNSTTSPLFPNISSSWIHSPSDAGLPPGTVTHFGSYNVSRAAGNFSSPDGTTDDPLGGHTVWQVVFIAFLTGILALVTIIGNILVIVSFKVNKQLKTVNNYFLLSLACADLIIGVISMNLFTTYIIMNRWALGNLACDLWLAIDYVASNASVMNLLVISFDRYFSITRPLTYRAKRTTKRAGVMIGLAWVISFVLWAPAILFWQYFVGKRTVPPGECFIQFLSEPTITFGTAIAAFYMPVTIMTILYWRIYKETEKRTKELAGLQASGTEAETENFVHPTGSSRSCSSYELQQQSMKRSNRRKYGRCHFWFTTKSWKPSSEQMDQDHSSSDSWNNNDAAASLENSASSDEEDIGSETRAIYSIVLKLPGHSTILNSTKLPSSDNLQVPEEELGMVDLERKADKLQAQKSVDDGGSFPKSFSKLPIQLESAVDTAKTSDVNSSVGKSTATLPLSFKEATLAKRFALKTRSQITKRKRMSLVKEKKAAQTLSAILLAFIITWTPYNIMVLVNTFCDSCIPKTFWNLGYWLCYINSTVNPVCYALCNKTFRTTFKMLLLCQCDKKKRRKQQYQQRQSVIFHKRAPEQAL
Sequence of hM2 receptor (P08172 whole entry): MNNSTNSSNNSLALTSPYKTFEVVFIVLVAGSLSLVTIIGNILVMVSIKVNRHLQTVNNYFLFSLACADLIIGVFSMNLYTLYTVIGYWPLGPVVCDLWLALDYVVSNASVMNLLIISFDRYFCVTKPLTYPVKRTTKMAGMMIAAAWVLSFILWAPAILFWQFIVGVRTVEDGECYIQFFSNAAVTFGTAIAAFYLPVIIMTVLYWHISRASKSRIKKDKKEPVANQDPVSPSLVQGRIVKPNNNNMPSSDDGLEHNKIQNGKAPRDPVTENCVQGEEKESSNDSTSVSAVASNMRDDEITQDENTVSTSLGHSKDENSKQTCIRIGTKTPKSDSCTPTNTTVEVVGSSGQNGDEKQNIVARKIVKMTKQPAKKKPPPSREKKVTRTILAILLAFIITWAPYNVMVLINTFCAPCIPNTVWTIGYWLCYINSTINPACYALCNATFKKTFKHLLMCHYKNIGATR

A word on the EC50: it is the concentration that produces a half-maximal response. In the case of `CCOC(=O)N1[C@@H]2CC[C@H]1C[C@@H](NCCNC(=O)c1ccccc1)C2` [Example 27, ethyl 3-((3-endo)-(2-benzamidoethyl)amino)-8-azabicyclo[3.2.1]octane-8-carboxylate], the EC50 on human M1 receptor is 214 nM; on human M1 receptor (human M1, agonist-evoked calcium mobilization in CHO-K1 cells, read-out: Potency (EC50)), 210 nM; on hM2 receptor, approximately 3 µM; at hM3 receptor it was approximately 10 µM. At human M1 receptor, the Emax turned out to be 37%.
As to `CCOC(=O)N1[C@@H]2CC[C@H]1C[C@H](NCCNC(=O)c1ccccc1)C2` [Example 26, ethyl 3-((3-exo)-(2-benzamidoethyl)amino)-8-azabicyclo[3.2.1]octane-8-carboxylate], the Emax at human M1 receptor turned out to be 57%. Besides, the EC50 on human M1 receptor (figure legends FIG. 1.0, 1.1, dose response data, read-out: EC50 for hM1) was 1200 nM; at hM2 receptor it was more than 10 µM; on hM3 receptor, more than 10 µM.
